# According to US20150343016A1, “CHEMICAL ENTITIES AND THERAPEUTIC USES THEREOF” (The Regents of the University of Colorado, a body corporate, priority 2010, published 2015):
# Entries after “also recorded” stand apart in the source; their conditions may differ.
# System: H157 tumor xenografts
# Assay: H157 tumor xenografts in athymic mice, Bouvardin with radiation
# Format: in vivo
# Excerpt: The effectiveness of Bouvardin, IR and the combination of the two was next assessed in H157 tumor xenografts (FIG. 17B). […] Similar results were obtained in a repeat experiment (not shown). […] Bouvardin enhances the effect of radiation in Drosophila mutant larvae, human cancer cells and tumor xenografts in mice. The choice of drug concentration would be critical.
# In FIG. 17 (A) Clonogenic assays were used to confirm the effects of Bouvardin in combination with radiation in H157 cells. Cells were plated in 6 well plates at 1,000 cells per well. 24 hours later, various doses of (1 nM, 5 nM and 10 nM) of Bouvardin were added with media alone as a control. 24 hours after the addition of Bouvardin, the cells were irradiated at 0, 2, 4 and 6 Gy. Colonies were allowed to form for 2 weeks and then counted. The results are shown as a percentage of control (no drug, no IR). Error bar=±1SEM. (B) The effect of Bouvardin (Bvd) and radiation on H157 xenografts in athymic mice. Bouvardin treatment began when tumors had reached approximately 200 mm3. Bouvardin was administered intraperitonealy twice a week, and radiation was administered 24 hr after each drug administration Animals in control and drug-only groups had tumors that were too large and had to be sacrificed on day 26. Treatment continued for the other two groups for one more week. The difference in tumor volume between combination-treated group and radiation only group was statistically significant at day 30 (p=0.0387 on day 30; upaired two tailed t-test). The difference in tumor volume between combination-treated group and radiation only group remains on day 33 but is less significant (p=0.0967; upaired two tailed t-test). N=10 per group. The data points indicate mean tumor volumes ±1SEM.
# Six to 8-week-old female nude athymic mice were purchased from Harlan Laboratories and housed in a pathogen-free facility approved by the American Association for the Accrediation of Laboratory Animal Care and met all current regulations and standards of the U.S. Department of Agriculture, the U.S. Department of Health and Human Services and the National Institutes of Health Animal procedures were carried out in accordance with a protocol approved by the Institutional Animal Care and Use Committee of the University of Colorado. Cancer cells were grown to 80% confluence and harvested by trypsinization. Trypsin was neutralized with complete medium containing FBS. […] Mice were treated for 3 weeks, and tumor growth was measured until volume exceeded 2 cm3, when animals were euthanized. Tumor volume was measured on Tuesdays and Fridays. Tumor volume was calculated using the formula V=a2×b/2, where a and b are the smallest and largest tumor diameters, respectively, as determined using calipers.
structure (smiles),measurement,setting,value
"COc1ccc(C[C@H]2C(=O)N[C@H](C)C(=O)N(C)[C@@H]3C(=O)N(C)[C@@H](Cc4ccc(O)c(c4)Oc4ccc(cc4)[C@H]3O)C(=O)N[C@@H](C)C(=O)N[C@H](C)C(=O)N2C)cc1 (stereo in doubt) [Bouvardin, bouvardin]","tumor control, drug with radiation versus radiation alone","0.2 mg/kg + radiation 24 hr after each drug administration, p=0.0387 on day 30, p=0.0967 on day 33",improved control of tumor volume in a statistically significant manner; also recorded: enhanced the effect of IR
same,"tumor control, drug alone",0.2 mg/kg intraperitonealy twice a week,had little effect on its own
same,"tumor control, drug alone",0.4 mg/kg,shows tumor control; also recorded: had effect on its own
same,"tumor control, drug with radiation versus radiation alone",0.4 mg/kg + radiation,did not enhance the effect of radiation; also recorded: did not enhance the effect of IR
